Assays:
[1] = system: cynomolgus monkey ES cells; experiment: ES cell differentiation inhibition assay 6, alkaline phosphatase staining; type: cell-based; conditions: for proportion of number of alkaline phosphatase stained colony to number of the total colony, in comparison with DMSO (0.1%): Matrigel-coated dish, cultured for 2 days, FIG. 15
Procedure: As the medium for culturing cynomolgus monkey ES cells, DME/F-12, 1:1 (SIGMA D6421) was added with respective factors in the final concentration as presented below to prepare a cynomolgus monkey ES cell culture medium: 20% knockout serum replacement: KSR (Invitrogen Corp. made, 10828-028), 1× nonessential amino acids (SIGMA M7145), 2 mM L-Glutamine (SIGMA G7513), 1 mM sodium pyruvate (SIGMA S8636), 1× penicillin/streptomycin solution (SIGMA P0781). The culture medium for a mouse feeder cell used for culturing cynomolgus monkey ES cells was prepared by adding respective factors to DMEM (Invitrogen Corp. made, 11960-044) in the final concentration shown below: 10% bovine fetus serum (Invitrogen Corp. made), 2 mM L-glutamine (Sigma G7513), 1× penicillin/streptomycin solution (Sigma P0781).
Gelatin (SIGMA Corp. made, Type A: from porcine ESkin, G2500) was dissolved in distilled water in 0.1% concentration, and 5 mL of the thus prepared 0.1% sterilized aqueous gelatin solution was added in a 6 cm-diameter cell culture dish, and then left stand at 37° C. for 30 minutes or longer. The aqueous gelatin solution was removed, and 2×10^6 mouse embryonic primary culture cell (Invitrogen Corp. made, YE9284400) treated with mitomycin, C (Kyouwa Hakkou Corp. made) was seeded and cultured by using the culture medium for the feeder cell as described above at 37° C. in 5% CO2 incubator (Tabai Espec Corp. made) for 5 hours or longer. The cynomolgus monkey ES cells (Tanabe Seiyaku, K.K. made) was seeded on mouse embryonic primary culture cell, and cultured and proliferated in 5 mL of cynomolgus monkey ES cell culture medium at 37° C. in 5% CO2 incubator for 3 days.
The cynomolgus monkey ES cells cultured by the method described in (1) culture of cynomolgus monkey ES cells as described above were washed with PBS and, then, a 0.1% collagenase solution (Wako Corp. made, 032-10534) dissolved in DMEM (Invitrogen Corp. made 11960-044), or a trypsin solution (prepared by mixing 10 mL of a 2.5% trypsin solution (Invitrogen Corp. made 15090-046), 20 mL of Knockout Serum Replacement (Invitrogen Corp. made 10828-028), 1 mL of a 100 mM CaCl2 aqueous solution and 69 mL of PBS) was added, and incubation was carried out at 37° C. for 5 minutes. 5 mL of the cynomolgus monkey ES cell culture medium was added, cell colonies were removed by using a small sized pipette and, then, dispersed, transferred to a 15 mL sterilized tube, and centrifuged at 1000 rpm for about 5 minutes by using the micro centrifuge (TOMY SEIKO made) to prepare pellets. The supernatant was removed, and then the cells were suspended again in 5 mL of the fresh ES cell culture medium to obtain the cynomolgus monkey ES cells. […]

mouse ES cell = experiment: Subculture of ES cells, alkaline phosphatase quantified by colony assay; type: cell-based
Procedure: For the ES cells prepared by the method described in (3) preparation of the mouse ES cell of Example 1, 3×10^5 cells were seeded on a 6 cm-diameter cell culture dish coated previously with a 0.1% aqueous gelatin solution to make 4.5 mL of the ES cell assay medium. 0.5 mL of the differentiation inhibiting agent (A to F and a to o) of the present invention, which was dissolved in dimethylsulfoxide (DMSO) or culture medium, or their mixture to make 10 to 40 μg/mL per each dish, or 10^4 units/mL of ESGRO was added. The final concentration of DMSO in the culture medium was 0.1% or lower. As the control, only DMSO was made the final concentration in 0.1% by adding 0.5 mL of a 1% concentration solution diluted with the medium. Culturing was conducted at 37° C. in 5% CO2 incubator for 7 to 30 days. The medium was replaced every day, and the cells were passaged to make 3×10^5 cells/dish for every 2 to 3 days.
The alkaline phosphatase activity of the ES cells cultured for 7 or 30 days by using the differentiation inhibiting agents of the present invention was quantified by applying colony assay. […] The absorbance at 405 nm (O.D.405) and absorbance at 690 nm (O.D.690) of the solution were measured by using the spectrophotometer (Molecular Devices Corp. made, type: SPECTRA MAX190), and the value calculated from O.D.405-O.D.690 was determined as the alkaline phosphatase activity.

Structure (SMILES) | proportion of number of alkaline phosphatase stained colony to number of the total colony, in comparison with DMSO (0.1%) [1] | alkaline phosphatase activity of subcultured ES cells in comparison with ES cells cultured by using DMSO (0.1%) (mouse ES cell; subcultured for 30 days by adding the compound, FIG. 13) | alkaline phosphatase staining of subcultured cells in comparison with DMSO ([1]; 3rd day after subculture after 3-day culture, FIG. 16) | effect on alkaline phosphatase staining in the presence of 6-bromoindirubin-3-oxime ([1]; subcultured, in the presence of 6-bromoindirubin-3-oxime, FIG. 16) | alkaline phosphatase activity of subcultured ES cells in comparison with ES cells cultured by using DMSO (0.1%) (mouse ES cell; subcultured in the medium without serum for 7 days by adding the compound, FIG. 14)
CC(=O)c1ccc(/N=N/C(C(N)=O)=C2/NC(C)(C)Cc3ccccc32)cc1 [compound B, 2-(4-acetyl-phenylazo)-2-(3,3-dimethyl-3,4-dihydro-2H-isoquinoline-1-ylidene)-acetamide] | significantly higher proportion of colonies stained with alkaline phosphatase | increased significantly | – | – | –
COc1ccc(N=NC(C(N)=O)=C2NC(C)(C)Cc3ccccc32)cc1 [F, 2-(3,3-dimethyl-3,4-dihydro-2H-isoquinoline-1-ylidene)-2-(4-methoxy-phenylazo)-acetamide] | significantly higher proportion of colonies stained with alkaline phosphatase | – | stained significantly | reinforced | increased significantly
